What was measured:
[1] = Lipophilicity HPLC determination (logk); format: physicochemical; conditions: HPLC capacity factor, C18, MeOH 70%/H2O 30%, 30 °C
[2] = test system: Staphylococcus epidermidis; assay: Antibacterial in vitro screening, microdilution broth method; format: cell-based; conditions: 80% inhibition of control
[3] = test system: PET in spinach chloroplasts; assay: Photosynthetic electron transport (PET) inhibition, DCPIP photoreduction; format: biochemical, Spinacia oleracea L.; conditions: DCPIP photoreduction
Method: The inhibition of photosynthetic electron transport (PET) in spinach chloroplasts was determined spectrophotometrically (Genesys 6, Thermo Scientific, Madison, WI, USA) using an artificial electron acceptor 2,6-dichlorophenol-indophenol (DCPIP). The rate of photosynthetic electron transport was monitored as a photoreduction of DCPIP. Chloroplasts were prepared from Spinacia oleracea L.. The measurements were carried out in phosphate buffer (0.02 mol/L, pH 7.2) containing sucrose (0.4 mol/L), MgCl2 (0.005 mol/L) and NaCl (0.015 mol/L). The chlorophyll concentration was 30 mg/L and the samples were irradiated (~100 W/m^2 with 10 cm distance) with a halogen lamp (250 W). […] The studied compound were dissolved in DMSO due to their limited water solubility. […] The efficiency of studied compounds was expressed as 50% inhibition concentration relative to the untreated control. The standard for these measurements was DCMU (Diurone®).

[4] = test system: spectrum of fungi tested (8 fungal strains); assay: Antifungal evaluation, summary over the fungi tested; format: cell-based; conditions: fungi tested, less active than the standards; read-out: IC80 antifungal
Method: Antifungal evaluation was also accomplished with microdilution broth method. On the contrary, there was used RPMI 1640 broth with glutamine as medium and conditions were humid and dark atmosphere, pH 7.0 (adjusted with 0.165 M morpholinepropanesulfonic acid, MOPS) and 35 °C. 8 fungal strains were used (Candida albicans ATCC 44859, Candida tropicalis 156, Candida krusei E28, Candida glabrata 20/I, Trichosporon asahii 1188, Aspergillus fumigatus 231, Lichtheimia corymbifera 272, Trichophyton mentagrophytes 445) together with four antimycotic standards amphotericin B, voriconazole, nystatin and fluconazole.

[5] = test system: aromatic amino acids of photosynthetic proteins in spinach chloroplasts; assay: Fluorescence emission spectra of aromatic amino acids in chloroplast suspension; parameters: species or system Spinacia oleracea L.; conditions: c = 0, 6, 24 and 48 μmol/L; excitation 275 nm; chlorophyll 10 mg/L
Method: The emission fluorescence spectra of aromatic amino acids were recorded on the fluorescence spectrophotometer F-2000 (Hitachi, Tokyo, Japan). The samples of chloroplast suspensions with and without studied inhibitor were excited at wavelength of 275 nm, excitation slit 20 nm and emission slit 10 nm. The samples were kept in the dark for 2 min prior to the measurement. The phosphate buffer used for dilution of the chloroplast suspension was the same as described above. The compounds were added to chloroplast suspension in DMSO solution due to low aqueous solubility. The DMSO concentration in all samples was the same as in the control (10%). The chlorophyll concentration in chloroplast suspension was 10 mg/L.

With `CCCCCCNc1nccnc1C(N)=O` [Compound 7, 3-(Hexylamino)pyrazine-2-carboxamide] the logk [1] was 0.6860, the IC80 [2] was less than 250 µM and the IC50 [3] was 32.9 µM. The IC80 [4] was no less than 250 µM and the “Quenching of aromatic amino acid fluorescence at 334 nm” value [5] was “increased with increasing concentration”.
